Patent US10111819B2 (The Procter & Gamble Company, priority 2015, dated 2018)

Experiments:
human TRPV1 receptor = target: T1, human TRPV1 receptor (Homo sapiens, UniProt Q8NER1, M315I/T336M); assay: FLIPR calcium flux, antagonists to CPC activation of TRPV1; assay type: cell-based; conditions: for % inhibition of CPC activation: TRPV1, CPC 100 uM; for % inhibition of CPC activation / Ca count CPC TRPV1 Receptor Antagonist: compound 1 mM (0.04% for extracts); for Ca count CPC TRPV1 Receptor Antagonist: 30 min preincubation, then CPC 100 uM; for inhibition at 1000 µM: read-out: % inhibition of CPC activation
T1 construct: expressed in transfected cells; host or cells: HEK-293
T1 sequence (Q8NER1 whole entry M315I/T336M): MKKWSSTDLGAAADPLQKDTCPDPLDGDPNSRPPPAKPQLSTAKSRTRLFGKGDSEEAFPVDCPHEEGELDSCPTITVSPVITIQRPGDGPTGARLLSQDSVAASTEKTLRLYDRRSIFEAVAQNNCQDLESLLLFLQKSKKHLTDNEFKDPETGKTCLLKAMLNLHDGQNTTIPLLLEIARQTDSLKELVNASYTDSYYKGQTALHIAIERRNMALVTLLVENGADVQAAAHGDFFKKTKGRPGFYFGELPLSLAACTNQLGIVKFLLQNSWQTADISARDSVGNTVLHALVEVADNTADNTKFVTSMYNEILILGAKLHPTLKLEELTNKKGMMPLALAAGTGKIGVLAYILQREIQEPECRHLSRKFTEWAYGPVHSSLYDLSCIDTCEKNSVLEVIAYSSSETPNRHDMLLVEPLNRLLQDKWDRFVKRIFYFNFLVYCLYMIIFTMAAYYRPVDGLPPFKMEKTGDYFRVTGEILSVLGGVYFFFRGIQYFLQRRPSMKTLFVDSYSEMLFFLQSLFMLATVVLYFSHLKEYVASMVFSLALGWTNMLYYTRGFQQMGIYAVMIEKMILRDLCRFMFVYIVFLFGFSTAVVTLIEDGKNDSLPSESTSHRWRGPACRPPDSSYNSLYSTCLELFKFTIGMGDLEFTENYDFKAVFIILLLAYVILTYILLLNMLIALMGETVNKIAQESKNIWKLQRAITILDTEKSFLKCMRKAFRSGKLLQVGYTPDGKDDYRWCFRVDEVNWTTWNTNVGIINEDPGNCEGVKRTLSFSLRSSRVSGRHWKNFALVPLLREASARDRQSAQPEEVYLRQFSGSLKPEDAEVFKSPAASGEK
Protocol: HEK-293 (human embryonic kidney) cells stably transfected with human TRPV1 receptor (SEQ ID NO. 1) were grown in 15 ml growth medium [high glucose DMEM (Dulbecco's Modification of Eagle's Medium) supplemented with 10% FBS (fetal bovine serum)], 100 μg/ml Penicillin/streptomycin, 100 μg/ml G418] in a 75 Cm^2 flask for 3 days at 33° C. in a mammalian cell culture incubator set at 5% CO2. Cells were detached with addition of 10 ml of PBS (phosphate buffered saline) by hand shaking gently. Cells were transferred to a 50 ml tube and centrifuged at 850 rpm for 3 minutes to remove PBS. After centrifugation, a pellet of cells is formed in the bottom of the tube separating them from the supernatant solution. The supernatant was discarded and the cell pellet is suspended in 1 ml of fresh growth medium to which 5 μl (12.5 μg) of Fluo-4 AM (Molecular Probes, Inc.) calcium indicator was added and incubated for 30 min with gentle shaking. Fluo-4 AM is a fluorescent dye used for quantifying cellular Ca^2+ concentrations in the 100 nM to […] range. At the end of the 30 minutes, 45 ml of assay buffer [1×HBSS (Hank's Balanced Salt Solution), 20 mM HEPES (4-(2-Hydroxyethyl)-1-piperazineethanesulfonic acid)] was added to wash cells and the resulting combination is then centrifuged at 850 rpm for 3 minutes to remove excess buffer and Fluo-4 AM calcium indicator; following centrifugation the assay buffer was removed. The pelleted cells were re-suspended in 10 ml assay buffer and 90 μl aliquots (˜50,000 cells) per well delivered to a 96-well assay plate containing compounds (final concentration 1 mM for pure compounds, 0.04% for extracts) or buffer control and incubated at room temperature for 30 minutes. After 30 minutes, the plate was placed into a fluorometric imaging plate reader (FLIPR^TETRA from Molecular Devices) and basal fluorescence recorded (excitation wave length 488 nm and emission wave length 510 nm). The FLIPR assay is an accepted method for detecting changes in intracellular calcium concentration. […] For determining the direct effect of test compounds on TRPV1 receptor, fluorescence was measured immediately after addition of each compound.

[1] = concentration level where the cooling effect can be clearly recognized; cited from earlier work
human TRPA1 receptor = target: T2, human TRPA1 receptor (Homo sapiens, UniProt O75762, K186N/R3C/R58T); assay: FLIPR calcium flux, antagonists to CPC activation of TRPA1; assay type: cell-based; conditions: for Ca count CPC TRPA1 Receptor Antagonist / % inhibition of CPC activation: compound 1 mM (0.04% for extracts); for Ca count CPC TRPA1 Receptor Antagonist: 30 min preincubation, then CPC 100 uM; for inhibition at 1000 µM: read-out: % inhibition of CPC activation; for % inhibition of CPC activation: TRPA1, CPC 100 uM
T2 construct: expressed in transfected cells; host or cells: HEK-293
T2 sequence (O75762 whole entry R3C/R58T/K186N): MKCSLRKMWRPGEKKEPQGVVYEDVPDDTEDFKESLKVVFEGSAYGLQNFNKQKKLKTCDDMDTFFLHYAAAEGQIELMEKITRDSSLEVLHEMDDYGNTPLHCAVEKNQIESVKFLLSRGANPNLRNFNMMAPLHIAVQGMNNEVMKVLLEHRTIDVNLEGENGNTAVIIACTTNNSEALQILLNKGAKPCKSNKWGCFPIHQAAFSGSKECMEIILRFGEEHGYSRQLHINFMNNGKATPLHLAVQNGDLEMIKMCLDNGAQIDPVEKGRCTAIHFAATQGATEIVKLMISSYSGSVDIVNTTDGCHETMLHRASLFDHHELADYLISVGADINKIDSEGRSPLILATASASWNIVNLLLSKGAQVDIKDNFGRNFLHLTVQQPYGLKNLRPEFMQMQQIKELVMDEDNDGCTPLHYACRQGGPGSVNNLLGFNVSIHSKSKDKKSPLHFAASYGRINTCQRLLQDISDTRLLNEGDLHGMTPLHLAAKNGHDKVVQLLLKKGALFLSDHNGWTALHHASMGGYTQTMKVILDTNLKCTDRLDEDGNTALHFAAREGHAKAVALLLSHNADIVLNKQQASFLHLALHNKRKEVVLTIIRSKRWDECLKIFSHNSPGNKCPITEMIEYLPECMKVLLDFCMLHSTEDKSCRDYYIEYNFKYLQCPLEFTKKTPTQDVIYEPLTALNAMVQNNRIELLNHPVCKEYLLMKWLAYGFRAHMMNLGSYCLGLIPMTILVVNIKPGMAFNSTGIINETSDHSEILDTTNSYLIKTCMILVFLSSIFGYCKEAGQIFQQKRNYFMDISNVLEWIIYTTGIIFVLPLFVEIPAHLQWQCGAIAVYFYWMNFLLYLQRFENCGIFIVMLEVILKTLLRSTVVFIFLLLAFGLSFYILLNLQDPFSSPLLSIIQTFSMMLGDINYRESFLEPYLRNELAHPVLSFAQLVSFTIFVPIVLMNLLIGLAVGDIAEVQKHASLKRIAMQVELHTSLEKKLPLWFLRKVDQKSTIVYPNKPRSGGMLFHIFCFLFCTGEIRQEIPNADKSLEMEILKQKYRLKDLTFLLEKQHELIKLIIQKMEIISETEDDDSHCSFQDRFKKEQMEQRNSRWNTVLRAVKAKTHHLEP
Protocol: HEK-293 (human embryonic kidney) cells stably transfected with human TRPA1 receptor (SEQ ID NO. 2) were grown in 15 ml growth medium [high glucose DMEM (Dulbecco's Modification of Eagle's Medium) supplemented with 10% FBS (fetal bovine serum)], 100 μg/ml Penicillin/streptomycin, 100 μg/ml G418] in a 75 Cm^2 flask for 3 days at 37° C. in a mammalian cell culture incubator set at 5% CO2. Cells were detached with addition of 10 ml of PBS (phosphate buffered saline) by gentle hand shaking. Cells were transferred to a 50 ml tube and centrifuged at 850 rpm for 3 minutes to remove PBS. After centrifugation, a pellet of cells was formed in the bottom of the tube separating them from the supernatant solution. The supernatant was discarded and the cell pellet suspended in 1 ml of fresh growth medium to which 5 μl (12.5 μg) of Fluo-4 AM (Molecular Probes, Inc., Grand Island, N.Y.) calcium indicator was added and incubated for 30 min with gentle shaking. Fluo-4 AM is a fluorescent dye used for quantifying cellular Ca^2+ concentrations in the 100 nM to 1 microM range. At the end of the 30 minutes, 45 ml of assay buffer [1×HBSS (Hank's Balanced Salt Solution), 20 mM HEPES (4-(2-Hydroxyethyl)-1-piperazineethanesulfonic acid)] was added to wash cells and the resulting combination was then centrifuged at 850 rpm for 3 minutes to remove excess buffer and Fluo-4 AM calcium indicator; following centrifugation the assay buffer was removed. The pellet cells were re-suspended in 10 ml assay buffer and 90 μl aliquots (˜50,000 cells) per well delivered to a 96-well assay plate containing compounds (final concentration 1 mM for pure compounds, 0.04% for extracts) or buffer control and incubated at room temperature for 30 minutes. After 30 minutes, the plate was placed into a fluorometric imaging plate reader (FLIPR^TETRA from Molecular Devices, Sunnyvale, Calif.) and basal fluorescence recorded (excitation wave length 488 nm and emission wave length 510 nm). The FLIPR assay is an accepted method for detecting changes in intracellular calcium concentration. […] For determining the direct effect of test compounds on TRPA1 receptor, fluorescence was measured immediately after addition of each compound.

In the case of `CC1=C(/C=C/C(C)O)C(C)(C)CCC1` (stereo not drawn) [beta-Ionol], the “% inhibition of CPC activation” value (human TRPV1 receptor) is reported as 65.9% and the “Ca count CPC TRPV1 Receptor Antagonist” value (human TRPV1 receptor) is reported as 1265 count.

For `CCCCOC(=O)C(C)C` [Butyl Isobutyrate], the “Ca count CPC TRPV1 Receptor Antagonist” value (human TRPV1 receptor) was 1504 count and the inhibition at 1000 µM (human TRPV1 receptor) was 57%.

With `COc1ccc(CCC(C)=O)cc1` [4-(4-Methoxyphenyl)-2-butanone] the “Ca count CPC TRPV1 Receptor Antagonist” value (human TRPV1 receptor) was 1218 count and the inhibition at 1000 µM (human TRPV1 receptor) was 55.2%.

In the case of `CC1=CCCC(C)(C)C1/C=C/C(C)O` (stereo not drawn) [alpha-Ionol], the “% inhibition of CPC activation” value (human TRPV1 receptor) is reported as 66.2% and the “Ca count CPC TRPV1 Receptor Antagonist” value (human TRPV1 receptor) is reported as 2620 count.

For `CCCCCC=CC(=O)O` [2-Octenoic Acid, Predominantly Trans, 2-Octenoic Acid], the “Ca count CPC TRPV1 Receptor Antagonist” value (human TRPV1 receptor) was 2878 count and the inhibition at 1000 µM (human TRPV1 receptor) was 78.3%.

In the case of `CC(C)[C@@H]1CC[C@@H](C)C[C@@H]1O` [d-neomenthol], the cooling threshold [1] is given as “about 25,000 ppb”.

With `CCCOC(=O)c1cc(O)c(O)c(O)c1` [n-propyl gallate] the “Ca count CPC TRPA1 Receptor Antagonist” value (human TRPA1 receptor) was 1844 count and the inhibition at 1000 µM (human TRPA1 receptor) was 65.6%.

In the case of `CC(C)[C@@H]1CC[C@@H](C)C[C@H]1O` [L-menthol], the cooling threshold [1] is listed as “about 800 ppb”.

With `OC[C@H]1O[C@@H]2O[C@H]3[C@H](O)[C@@H](O)[C@@H](O[C@H]4[C@H](O)[C@@H](O)[C@@H](O[C@H]5[C@H](O)[C@@H](O)[C@@H](O[C@H]6[C@H](O)[C@@H](O)[C@@H](O[C@H]7[C@H](O)[C@@H](O)[C@@H](O[C@H]8[C@H](O)[C@@H](O)[C@@H](O[C@H]1[C@H](O)[C@H]2O)O[C@@H]8CO)O[C@@H]7CO)O[C@@H]6CO)O[C@@H]5CO)O[C@@H]4CO)O[C@@H]3CO` [beta-Cyclodextrin] the “Ca count CPC TRPA1 Receptor Antagonist” value (human TRPA1 receptor) was 2324 count and the inhibition at 1000 µM (human TRPA1 receptor) was 56.7%.

In the case of `CC(=O)[O-].CC(=O)[O-].[Zn+2]` [Zinc Acetate], the “% inhibition of CPC activation” value (human TRPV1 receptor) is reported as 89.8% and the “Ca count CPC TRPV1 Receptor Antagonist” value (human TRPV1 receptor) is reported as 1351 count.

For Manganese Gluconate, the “% inhibition of CPC activation” value (human TRPA1 receptor) was 67.2% and the “Ca count CPC TRPA1 Receptor Antagonist” value (human TRPA1 receptor) was 2234 count.

With `O=S(=O)([O-])[O-].[Mg+2]` [Magnesium sulfate] the “% inhibition of CPC activation” value (human TRPV1 receptor) was 88.1%.

For `CC(=O)CCc1ccc(O)cc1` [4-(4-Hydroxy-phenyl)-butan-2-one], the “Ca count CPC TRPV1 Receptor Antagonist” value (human TRPV1 receptor) was 1127 count and the inhibition at 1000 µM (human TRPV1 receptor) was 67.8%.

In the case of `CC1CCC(C(C)(C)S)C(=O)C1` (centres unmarked) [P-mentha-8-thiol-3-one], the “% inhibition of CPC activation” value (human TRPA1 receptor) is reported as 48.3% and the “Ca count CPC TRPA1 Receptor Antagonist” value (human TRPA1 receptor) is reported as 3513 count.

For `O=C(OC[C@H]1O[C@@H](OC(=O)c2cc(O)c(O)c(OC(=O)c3cc(O)c(O)c(O)c3)c2)[C@H](OC(=O)c2cc(O)c(O)c(OC(=O)c3cc(O)c(O)c(O)c3)c2)[C@@H](OC(=O)c2cc(O)c(O)c(OC(=O)c3cc(O)c(O)c(O)c3)c2)[C@@H]1OC(=O)c1cc(O)c(O)c(OC(=O)c2cc(O)c(O)c(O)c2)c1)c1cc(O)c(O)c(OC(=O)c2cc(O)c(O)c(O)c2)c1` [Tannic Acid], the “Ca count CPC TRPA1 Receptor Antagonist” value (human TRPA1 receptor) was 321 count and the inhibition at 1000 µM (human TRPA1 receptor) was 95.3%.

For `CC(C)[C@@H]1CC[C@@H](C)C[C@@H]1O` [Rinse 1-neomenthol, 1-neomenthol], the cooling threshold [1] is listed as “about 3,000 ppb”.

For Manganese Citrate, the “% inhibition of CPC activation” value (human TRPA1 receptor) was 52.2% and the “Ca count CPC TRPA1 Receptor Antagonist” value (human TRPA1 receptor) was 4553 count.

For `CCCCCCCCCCOC(C)=O` [Decyl Acetate], the “Ca count CPC TRPV1 Receptor Antagonist” value (human TRPV1 receptor) was 2079 count and the inhibition at 1000 µM (human TRPV1 receptor) was 60.2%.

With `CCCCCC=CC(C)=O` [3-Nonen-2-one] the “Ca count CPC TRPV1 Receptor Antagonist” value (human TRPV1 receptor) was 3470 count and the inhibition at 1000 µM (human TRPV1 receptor) was 43.6%.

For `Nc1ccccc1C(=O)Oc1ccc2ccccc2c1` [2-Aminobenzoic Acid Naphthalen-2-Yl Ester], the “Ca count CPC TRPV1 Receptor Antagonist” value (human TRPV1 receptor) was 4172 count and the inhibition at 1000 µM (human TRPV1 receptor) was 38.3%.

For `CCCC(=O)OC(C)(C)Cc1ccccc1` [Alpha,Alpha-Dimethylphenethyl Butyrate], the “Ca count CPC TRPV1 Receptor Antagonist” value (human TRPV1 receptor) was 4246 count and the inhibition at 1000 µM (human TRPV1 receptor) was 45.2%.

With `Cc1occc(=O)c1OC(=O)C(C)C` [Maltyl Isobutyrate] the “% inhibition of CPC activation” value (human TRPA1 receptor) was 46.3% and the “Ca count CPC TRPA1 Receptor Antagonist” value (human TRPA1 receptor) was 2882 count.

With `NCCc1ccc(O)cc1` [Uteramine] the “Ca count CPC TRPV1 Receptor Antagonist” value (human TRPV1 receptor) was 1093 count and the inhibition at 1000 µM (human TRPV1 receptor) was 68.8%.

With `CC1(C)C2CC=C(CO)C1C2` (centres unmarked) [Myrtenol] the “% inhibition of CPC activation” value (human TRPA1 receptor) was 86.04%, the “% inhibition of CPC activation” value (human TRPA1 receptor; listed as myrtenol) was 86% and the “Ca count CPC TRPA1 Receptor Antagonist” value (human TRPA1 receptor) was 440 count.

In the case of `COC(=O)CCCc1ccccc1` [Methyl 4-Phenylbutyrate], the “Ca count CPC TRPV1 Receptor Antagonist” value (human TRPV1 receptor) is reported as 3469 count and the inhibition at 1000 µM (human TRPV1 receptor) is reported as 43.6%.
